The subject of experiment [1] is common mosquito (Culex pipiens pallens). Briefly: Test Example 1: mortality of larvae and inhibition of emergence of common mosquito. The format is in vivo. The settings on record: for Inhibitory ratio of emergence: 3.5 ppm, counted when all mosquitoes of no treatment group had emerged; for mortality at 3.5 ppm: Culex pipiens, 24 h, last instar larvae, after one day. Here is the method:
The emulsifiable concentrates of the following present compounds obtained according to Formulation example 2 were each diluted with water so as to obtain respective aqueous solutions containing 3.5 ppm of said compounds, respectively. One hundred ml of thus diluted aqueous solutions were poured into respective polyethylene cups of 180 ml volume, and 20 of the last instar larvae of common mosquito (Culex pipiens pallens) were liberated thereto. After one day, the dead or alive of the larvae were examined. Thereafter, the feed was added to respective cups and the number of emerged mosquitoes of the respective cups was counted when all the mosquitoes of no treatment group had […] to calculate the inhibitory ratios of the emergence. The mortality and the inhibitory ratio of the emergence are shown according to the following three criteria: mortality: A; 90% or more, […] inhibitory: A; 90% or more, ratio of emergence B; less than 90% to 80% C; less than 80%.

Experiment [2] concerns carmine spider mite (Tetranychus cinnabarinus). Briefly: Test Example 8: degree of damage of kidney bean plant by carmine spider mite. On the set-up: key: -: No damage is observed.; +: Slight damage is observed.; ++: The same damage as in the untreated plot is observed. Particulars: 500 ppm, sprayed 15 ml/pot plus 2 ml to soil; after 8 days; 25° C. In kind it is in vivo. Here is the method: The female adults of carmine spider mite (Tetranychus cinnabarinus) were put at a rate of 10 adults/leaf on the leaves of potted kidney bean (at the primordial leaf stage) which had elapsed 7 days after sowing, and placed in a constant-temperature room kept at 25° C. After 6 days, the 200-fold aqueous dilute solutions (corresponding to 500 ppm), prepared from the emulsifiable concentrates of the following present compounds and control compounds prepared according to Formulation example 2, were each sprayed at a rate of 15 ml/pot on a turn table. At the same time, the soil in the pot was treated with 2 ml of each aqueous solution. After 8 days, the degree of damage of the plant by the mite was examined.
-: No damage is observed.
+: Slight damage is observed.
++: The same damage as in the untreated plot is observed.

Regarding `C#CC(C)(CCCc1ccc(F)c(Oc2ccccc2)c1)c1ccc(OC)cc1` (centres unmarked) [(5), 3-(4-Methoxyphenyl)-3-methyl-6-(3-phenoxy-4-fluorophenyl)-1-hexyne], in experiment [1], the “Inhibitory ratio of emergence” value is on record as “A (90% or more)” and the mortality (commonly the percentage killed) at 3.5 ppm is more than 90%.

As to `C#CC(C)(CCCc1ccc(F)c(Oc2ccccc2)c1)c1ccc(OC(F)F)cc1` (centres unmarked) [(6), 3-(4-Difluoromethoxyphenyl)-3-methyl-6-(3-phenoxy-4-fluorophenyl)-1-hexyne], in experiment [1], the “Inhibitory ratio of emergence” value is recorded as “A (90% or more)” and the mortality at 3.5 ppm is more than 90%. Further, the Degree of damage entry in experiment [2] is “-”.

Turning to `C#CC(C)(CCCc1ccc(F)c(Oc2ccccc2)c1)c1ccc(OCC=C)cc1` (centres unmarked) [(8), 3-(4-Allyloxyphenyl)-3-methyl-6-(3-phenoxy-4-fluorophenyl)-1-hexyne], in experiment [1], the “Inhibitory ratio of emergence” value is “A (90% or more)” and the mortality at 3.5 ppm is more than 90%. Besides, the Degree of damage entry in experiment [2] is listed as “-”.

In the case of `C#CC(C)(CCCc1ccc(F)c(Oc2ccccc2)c1)c1ccc(F)cc1` (centres unmarked) [(9), 3-(4-Fluorophenyl)-3-methyl-6-(3-phenoxy-4-fluorophenyl)-1-hexyne], in experiment [1], the “Inhibitory ratio of emergence” value is “A (90% or more)” and the mortality at 3.5 ppm is more than 90%.

On to `C#CC(C)(CCCc1ccc(F)c(Oc2ccccc2)c1)c1ccc(Cl)cc1` (centres unmarked) [(10), 3-(4-Chlorophenyl)-3-methyl-6-(3-phenoxy-4-fluorophenyl)-1-hexyne], for which, in experiment [1], the “Inhibitory ratio of emergence” value is given as “A (90% or more)” and the mortality at 3.5 ppm was more than 90%. Also, the Degree of damage entry in experiment [2] is “-”.

On to `C#CC(C)(CCCc1ccc(F)c(Oc2ccccc2)c1)c1ccc(OCC)c(Cl)c1` (centres unmarked) [(11), 3-(3-Chloro-4-ethoxyphenyl)-3-methyl-6-(3-phenoxy-4-fluorophenyl)-1-hexyne], for which, in experiment [1], the “Inhibitory ratio of emergence” value was “A (90% or more)” and the mortality at 3.5 ppm was more than 90%. The Degree of damage entry in experiment [2] was “-”.

Take `C#CC(C)(CCCc1ccc(F)c(Oc2ccccc2)c1)c1ccc2c(c1)OCO2` (centres unmarked) [(12), 3-(3,4-Methylenedioxyphenyl)-3-methyl-6-(3-phenoxy-4-fluorophenyl)-1-hexyne]: in experiment [1], the “Inhibitory ratio of emergence” value is listed as “A (90% or more)” and the mortality at 3.5 ppm is more than 90%.

As to `C#CC(C)(CCCc1cccc(Oc2ccccc2)c1)c1ccc2c(c1)OCO2` (centres unmarked) [(14), 3-(3,4-Methylenedioxyphenyl)-3-methyl-6-(3-phenoxyphenyl)-1-hexyne], in experiment [1], the “Inhibitory ratio of emergence” value is “A (90% or more)” and the mortality at 3.5 ppm is more than 90%.

For the compound `C#CC(C)(CCCc1cccc(Oc2ccc(F)cc2)c1)c1ccc(OCC)cc1` (centres unmarked) [(15), 3-(4-Ethoxyphenyl)-3-methyl-6-{3-(4-fluorophenoxy)phenyl}-1-hexyne], in experiment [1], the “Inhibitory ratio of emergence” value is listed as “A (90% or more)” and the mortality at 3.5 ppm was more than 90%.

Turning to `C=CC(C)(CCCc1cccc(Oc2ccccc2)n1)c1ccc(OCC)cc1` (centres unmarked) [(19), 3-(4-Ethoxyphenyl)-3-methyl-6-(6-phenoxypyridin-2-yl)-1-hexene], in experiment [1], the “Inhibitory ratio of emergence” value is recorded as “A (90% or more)” and the mortality at 3.5 ppm is 10 to 90%.

In the case of `C#CC(C)(CCCc1ccc(F)c(Nc2ccccc2)c1)c1ccc(OCC)cc1` (centres unmarked) [(21), 3-(4-Ethoxyphenyl)-3-methyl-6-(3-anilino-4-fluorophenyl)-1-hexyne], in experiment [1], the “Inhibitory ratio of emergence” value is listed as “A (90% or more)” and the mortality at 3.5 ppm is more than 90%.

As for `C#CC(C)(CCCc1cccc(Sc2ccccc2)c1)c1ccc(OCC)cc1` (centres unmarked) [(22), 3-(4-Ethoxyphenyl)-3-methyl-6-(3-phenylthiophenyl)-1-hexyne], in experiment [1], the “Inhibitory ratio of emergence” value was “A (90% or more)” and the mortality at 3.5 ppm is 10 to 90%.

In the case of `C#CC(C)(CCCc1cccc(Oc2ccccc2)c1)c1ccc(CC)cc1` (centres unmarked) [(23), 3-(4-Ethylphenyl)-3-methyl-6-(3-phenoxyphenyl)-1-hexyne], in experiment [1], the “Inhibitory ratio of emergence” value is “A (90% or more)” and the mortality at 3.5 ppm was more than 90%.

Regarding `C#CC(C)(CCCc1cccc(Oc2ccccc2)c1)c1ccc(OC)cc1` (centres unmarked) [(24), 3-(4-Methoxyphenyl)-3-methyl-6-(3-phenoxyphenyl)-1-hexyne], in experiment [1], the “Inhibitory ratio of emergence” value is listed as “A (90% or more)” and the mortality at 3.5 ppm is 10 to 90%.

Regarding `C#CC(CC)(CCCc1cccc(Oc2ccccc2)c1)c1ccc(Cl)cc1` (centres unmarked) [(26), 3-(4-Chlorophenyl)-3-ethyl-6-(3-phenoxyphenyl)-1-hexyne], in experiment [1], the “Inhibitory ratio of emergence” value is given as “A (90% or more)” and the mortality at 3.5 ppm was more than 90%.

Regarding `C#CC(C)(CCCc1ccc(F)c(Oc2ccccc2)c1)c1ccc(OC(F)F)c(Cl)c1` (centres unmarked) [(27)], in experiment [1], the “Inhibitory ratio of emergence” value is reported as “A (90% or more)” and the mortality at 3.5 ppm was in the range of 10 to 90%.

In the case of `C#CC(CCCc1cccc(Oc2ccccc2)c1)c1ccc(OCC)cc1` (centres unmarked) [(28), 3-(4-Ethoxyphenyl)-6-(3-phenoxyphenyl)-1-hexyne], in experiment [1], the “Inhibitory ratio of emergence” value is “A (90% or more)” and the mortality at 3.5 ppm was more than 90%.

Take `C#CC(CC)(CCCc1ccc(F)c(Oc2ccccc2)c1)c1ccc(OCC)cc1` (centres unmarked) [(29), 3-(4-Ethoxyphenyl)-3-ethyl-6-(3-phenoxy-4-fluorophenyl)-1-hexyne]: in experiment [1], the “Inhibitory ratio of emergence” value is reported as “A (90% or more)” and the mortality at 3.5 ppm is more than 90%.

Turning to `C#CC(C)(CCCc1ccc(F)c(Cc2ccccc2)c1)c1ccc(OCC)cc1` (centres unmarked) [(30), 3-(4-Ethoxyphenyl)-3-methyl-6-(3-benzyl-4-fluorophenyl)-1-hexyne], in experiment [1], the “Inhibitory ratio of emergence” value was “A (90% or more)” and the mortality at 3.5 ppm was more than 90%.

On to `C=CC(C)(CCCc1ccc(F)c(Nc2ccccc2)c1)c1ccc(OCC)cc1` (centres unmarked) [(31), 3-(4-Ethoxyphenyl)-3-methyl-6-(3-anilino-4-fluorophenyl)-1-hexene], for which, in experiment [1], the “Inhibitory ratio of emergence” value is “A (90% or more)” and the mortality at 3.5 ppm is more than 90%.

Regarding `C#CC(CC)(CCCc1cccc(Oc2ccccc2)c1)c1ccc(OCC)cc1` (centres unmarked) [(32), 3-(4-Ethoxyphenyl)-3-ethyl-6-(3-phenoxyphenyl)-1-hexyne], in experiment [1], the “Inhibitory ratio of emergence” value is “A (90% or more)” and the mortality at 3.5 ppm was more than 90%.

In the case of `C#CC(C)(CCCc1ccc(F)c(Oc2ccc(C)cc2)c1)c1ccc(OCC)cc1` (centres unmarked) [(33), 3-(4-Ethoxyphenyl)-3-methyl-6-{3-(4-methylphenoxy)-4-fluorophenyl}-1-hexyne], in experiment [1], the “Inhibitory ratio of emergence” value was “A (90% or more)” and the mortality at 3.5 ppm was more than 90%.

As to `C#CC(C)(CCCc1ccc(F)c(Oc2ccc(Cl)cc2)c1)c1ccc(OCC)cc1` (centres unmarked) [(34), 3-(4-Ethoxyphenyl)-3-methyl-6-{3-(4-chlorophenoxy)-4-fluorophenyl}-1-hexyne], in experiment [1], the “Inhibitory ratio of emergence” value is given as “A (90% or more)” and the mortality at 3.5 ppm is more than 90%.

`C#CC(C)(CCCc1cccc(Oc2ccccc2)c1)c1ccc(F)cc1` (centres unmarked) [(35), 3-(4-Fluorophenyl)-3-methyl-6-(3-phenoxyphenyl)-1-hexyne]: in experiment [1], the “Inhibitory ratio of emergence” value is listed as “A (90% or more)” and the mortality at 3.5 ppm was more than 90%.

As to `C#CC(C)(CCCc1ccc(F)c(Oc2ccccc2)c1)c1ccc(Cl)c(Cl)c1` (centres unmarked) [(36), 3-(3,4-Dichlorophenyl)-3-methyl-6-(3-phenoxy-4-fluorophenyl)-1-hexyne], in experiment [1], the “Inhibitory ratio of emergence” value is recorded as “A (90% or more)” and the mortality at 3.5 ppm was in the range of 10 to 90%.

On to `C#CC(C)(CCCc1ccc(F)c(Oc2ccc(F)cc2)c1)c1ccc(OCC)cc1` (centres unmarked) [(38), 3-(4-Ethoxyphenyl)-3-methyl-6-{3-(4-fluorophenoxy)-4-fluorophenyl}-1-hexyne], for which, in experiment [1], the “Inhibitory ratio of emergence” value was “A (90% or more)” and the mortality at 3.5 ppm was more than 90%.

On to `C#CC(C)(CCCc1ccc(F)c(Oc2ccccc2)c1)c1ccc(OCC=C)c(Cl)c1` (centres unmarked) [(40)], for which, in experiment [1], the “Inhibitory ratio of emergence” value was “A (90% or more)” and the mortality at 3.5 ppm was in the range of 10 to 90%.

With `C#CC(CC)(CCCc1ccc(F)c(Oc2ccccc2)c1)c1ccc(Cl)cc1` (centres unmarked) [(41), 3-(4-Chlorophenyl)-3-ethyl-6-(3-phenoxy-4-fluorophenyl)-1-hexyne], in experiment [1], the “Inhibitory ratio of emergence” value is reported as “A (90% or more)” and the mortality at 3.5 ppm is more than 90%.

Regarding `C#CC(CCCC)(CCCc1ccc(F)c(Oc2ccccc2)c1)c1ccc(OCC)cc1` (centres unmarked) [(42), 3-(4-Ethoxyphenyl)-3-n-butyl-6-(3-phenoxy-4-fluorophenyl)-1-hexyne], in experiment [1], the “Inhibitory ratio of emergence” value is on record as “A (90% or more)” and the mortality at 3.5 ppm fell in the range of 10 to 90%.

As for `C#CC(C)(CCCc1cccc(Oc2ccccc2)n1)c1ccc(OC)cc1` (centres unmarked) [(44), 3-(4-methoxyphenyl)-3-methyl-6-(6-phenoxypyridin-2-yl)-1-hexyne], in experiment [1], the “Inhibitory ratio of emergence” value is reported as “A (90% or more)” and the mortality at 3.5 ppm was 10 to 90%.

For `Cc1cc(Cl)ccc1N=CN(C)C` [(E), Chlordimeform, reference compound], in experiment [2], the Degree of damage result is recorded as “- ~ +”.
